Laboratory results reported in PubChem BioAssay AID504564 (Southern Research Specialized Biocontainment Screening …, 2011).
pIC50: −log10 of the molar value. The source made the active and inactive calls. How the calls were made is not given here. Where a SMILES comes first, the peptide text is derived from it.

Columns and labels:
[1] = test system: M. tuberculosis H37Rv growth inhibition, no glycerol; assay: Confirmatory growth inhibition assay, M. tuberculosis H37Rv, no glycerol, purified compounds (AID 504564); details: for IC90: 90% growth inhibition concentration
[2] = as above; details: M. tuberculosis H37Rv growth inhibition, no glycerol; at 25 µM (top of the series)

SMILES	pIC50 [1]	IC90 [1] [nM]	growth inhibition [2]
CCOC(=O)COn1c2c(c3c4no[n+]([O-])c4ccc31)CCCC2	5.80	3040	
Cc1cc(Br)ccc1NC(=O)c1cnc(N2CCN(c3ccccn3)CC2)c2ccccc12	6.07	2540	
COC(=O)CCc1nc2c(C#N)c(-c3ccc(Cl)cc3)ccn2n1	6.08	3540	
CC(=NCc1ccc2c(c1)OCO2)C1=C(O)c2ccccc2C1=O	7.15	600	
Cc1cccc(-c2oc3ccc(-c4ccc5c(c4)OCO5)cc3c2C#Cc2cncn2C)c1	5.65	2930	
O=C(NCC(c1cccs1)N1CCOCC1)c1cc([N+](=O)[O-])cc([N+](=O)[O-])c1 (stereo not given)	6.82	310	
Cc1nc(SCC(=O)NC2CCCCC2)[nH]c(=O)c1C	6.60	740	
Cc1nn2c(NCc3ccccn3)cc(C(C)C)nc2c1-c1ccccc1	6.19	1200	
CC(C)NC(=O)c1sc(=S)n2c1[nH]c(=O)c1ccc(C(=O)NCCc3ccc(Cl)cc3)cc12	6.68	430	
CCOC(=O)c1ccc(NC(=O)Cn2ncc(Cl)c(Cl)c2=O)cc1	7.05	280	
c1ccc(/N=C2\N=C(Nc3ccccn3)c3ccccc32)nc1	7.70	30	
Oc1ccccc1/C=N/Nc1ccnc(SCc2ccccc2)n1			0.48% (inactive)
CCOC(=O)CNC(=O)[C@H](Cc1ccccc1)NC(=O)OCc1ccccc1 (HELM PEPTIDE1{[O=C(OCc1ccccc1)[*:2]].F.G.[CCO[*:1]]}$$$$V2.0)	5.97	2500	
Nc1c(C(=O)NC2CCCCC2)nsc1C(=O)OCC(=O)NC1CCCCC1	6.35	1230	
CCC(C)Nc1ccc(NC(C)CC)cc1 (stereo not given)	6.23	990	
Cc1ccc2ccc3ccc(C)nc3c2n1	6.80	450	
CNc1nc(SCc2ccccc2Cl)nc2c1CCCC2	6.37	1060	
CCOC(=O)C(C)Sc1ncnc2c1nnn2-c1ccc(F)cc1 (stereo not given)	6.35	4760	
CCOC(=O)COc1ccc(/C=C2\NC(=S)N(CC)C2=O)cc1	5.77	4460	
Cc1ccc(C(=O)N/N=C(/CC(=O)c2cccs2)C(F)(F)F)cc1	6.25	890	

SMILES	pIC50 [1]	IC90 [1] [nM]	growth inhibition [2]
S=c1nc[nH]c2nc[nH]c12	5.99	1520	
O=C(/C=C\c1cccs1)N1CCN(Cc2ccc3c(c2)OCO3)CC1	6.85	330	
O=C(CSc1nc2ccccc2c(=O)[nH]1)NC1CCCCC1	> 8.00	< 10	
COc1cc(NC(=O)C/C(C)=N/NC(=O)c2ccccn2)c(OC)cc1Cl	5.69	6770	
COC(=O)c1ccc(CNc2c(N3CCCC3)c(=O)c2=O)cc1			-5.07% (inactive)
CCc1ccc(/C=C2/C(=O)N(C)C(=S)N2CC(=O)OC)s1	6.34	1910	
CC1CCN(C(=O)C2CCN(c3nnc(-n4cccc4)s3)CC2)CC1	5.94	2830	
COC(=O)C1CC(=O)N(c2ccc(OCc3ccccc3Cl)cc2)C1 (stereo not given)	6.47	2630	
Cc1ccc2c(c1)c(C1=c3ccccc3=NC1=O)c(O)n2C	6.31	1500	
O=C1C(Br)=Cc2cccc3cccc1c23	7.22	170	
O=C(/C=C/c1ccccc1)N1CCN(CCN2C(=O)c3cccc4cccc(c34)C2=O)CC1	5.82	4020	
Cc1ccc(NC(=O)C2C3/C=C\CCCCC32)cc1C (stereo not given)	5.73	> 25000	
O=C(CSc1nc2ccccc2c(=O)[nH]1)NCc1ccc(Cl)cc1	6.52	660	
COC(=O)c1cc(=O)n(-c2ccc(F)cc2)c(=Nc2ccc(F)cc2)s1	6.52	1100	
Cc1cccc(/C=C/C(=O)c2ccc([N+](=O)[O-])o2)c1	7.70	20	
COC(=O)C(C)Oc1ccc(-c2nccc(-c3ccccn3)n2)cc1 (stereo not given)	5.79	4320	
CCOC1OC(=O)C(Cl)=C1Nc1ccccc1C (stereo not given)	5.58	4410	
CC[N+](C)(CC)CCCCOc1ccc2c(c1)C(=O)c1cc(OCCCC[N+](C)(CC)CC)ccc1-2	6.15	1200	
COC(=O)C(Nc1nc(SCC(=O)NC2CCCCC2)nc2ccccc12)c1ccccc1 (stereo not given)			3.49% (inactive)
